The values that follow come from ChEMBL document CHEMBL4421727, “Small molecule inhibitors of 8-oxoguanine dna glycosylase-1 (ogg1)” (2017).

Experiment [1] addresses T1, Endonuclease III-like protein 1 (Homo sapiens) (UniProt P78549).
T1 sequence (whole entry): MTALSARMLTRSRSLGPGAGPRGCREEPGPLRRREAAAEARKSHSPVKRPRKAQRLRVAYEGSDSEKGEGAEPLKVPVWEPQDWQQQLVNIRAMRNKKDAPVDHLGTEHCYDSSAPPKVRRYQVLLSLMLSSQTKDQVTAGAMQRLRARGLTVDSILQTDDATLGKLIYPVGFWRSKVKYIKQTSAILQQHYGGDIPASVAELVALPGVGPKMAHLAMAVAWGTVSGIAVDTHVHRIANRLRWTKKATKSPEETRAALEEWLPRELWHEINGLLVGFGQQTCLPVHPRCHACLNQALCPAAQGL
In words: Inhibition of NTH1 (unknown origin) assessed as remaining enzyme activity at 50 uM incubated for 40 mins by TAMRA fluorescence-based assay.

The nature of experiment [2]: Binding affinity to duplex DNA (unknown origin) assessed as induction of DNA intercalation at 50 uM incubated for 30 mins by gel electrophoresis.
For experiment [3], the target named is T2, Endonuclease 8-like 1 (Homo sapiens, UniProt Q96FI4). The experiment is described as follows: Inhibition of NEIL1 (unknown origin) assessed as remaining enzyme activity at 50 uM using Sp/Gh substrate incubated for 40 mins by TAMRA fluorescence-based assay.
Experiment [4] addresses T3, Formamidopyrimidine-DNA glycosylase (Escherichia coli (strain K12)) (UniProt P05523).
T3 sequence (whole entry): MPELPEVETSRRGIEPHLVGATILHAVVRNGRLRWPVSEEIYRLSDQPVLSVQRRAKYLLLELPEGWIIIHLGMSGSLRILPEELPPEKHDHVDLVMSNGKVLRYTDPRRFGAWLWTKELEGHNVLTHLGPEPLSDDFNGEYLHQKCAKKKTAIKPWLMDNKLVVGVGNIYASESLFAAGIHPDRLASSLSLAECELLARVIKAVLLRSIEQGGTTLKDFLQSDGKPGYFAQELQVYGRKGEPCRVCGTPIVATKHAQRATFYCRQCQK
In words: Inhibition of Escherichia coli FPG assessed as remaining enzyme activity at 50 uM using 8-oxo-Gua substrate incubated for 10 mins by TAMRA fluorescence-based assay.

In experiment [5] the target is T2, Endonuclease 8-like 1. The experiment is described as follows: Inhibition of NEIL1 (unknown origin) using Sp/Gh substrate incubated for 40 mins by TAMRA fluorescence-based assay.
The target in experiment [6] is T2, Endonuclease 8-like 1. In words: Inhibition of NEIL1 (unknown origin) assessed as effect on DNA lesions per 10^6 DNA bases using 5-OH-5-MeHyd substrate incubated for 1 hr by GC-MS/MS assay.
Experiment [7] addresses T1, Endonuclease III-like protein 1 (Homo sapiens). In words: Inhibition of NTH1 (unknown origin) assessed as effect on DNA lesions per 10^6 DNA bases using 5-OH-5-MeHyd substrate incubated for 1 hr by GC-MS/MS assay.
Experiment [8] has as its target T3, Formamidopyrimidine-DNA glycosylase (Escherichia coli (strain K12)). The experiment is described as follows: Inhibition of Escherichia coli FPG assessed as reduction in enzyme-mediated incision using compound pre-incubated with AP-site containing DNA substrate for 30 mins at 37 degC followed by enzyme addition.
For experiment [9], the target named is T1, Endonuclease III-like protein 1 (Homo sapiens). The experiment is described as follows: Inhibition of NTH1 (unknown origin) assessed as effect on DNA lesions per 10^6 DNA bases using FapyGua substrate incubated for 1 hr by GC-MS/MS assay.
Experiment [10] has as its target T3, Formamidopyrimidine-DNA glycosylase (Escherichia coli (strain K12)). The experiment is described as follows: Inhibition of Escherichia coli FPG assessed as reduction in enzyme-mediated incision using compound pre-incubated with 8-oxo-Gua substrate for 30 mins at 37 degC followed by enzyme addition.
Experiment [11] has as its target T2, Endonuclease 8-like 1. In words: Inhibition of NEIL1 (unknown origin) assessed as effect on DNA lesions per 10^6 DNA bases using FapyAde substrate incubated for 1 hr by GC-MS/MS assay.
Experiment [12] has as its target T2, Endonuclease 8-like 1. In words: Inhibition of NEIL1 (unknown origin) assessed as effect on DNA lesions per 10^6 DNA bases using FapyGua substrate incubated for 1 hr by GC-MS/MS assay.
The target in experiment [13] is T1, Endonuclease III-like protein 1 (Homo sapiens). The experiment is described as follows: Inhibition of NTH1 (unknown origin) assessed as effect on DNA lesions per 10^6 DNA bases using FapyAde substrate incubated for 1 hr by GC-MS/MS assay.
Experiment [14] concerns the target T4, Formamidopyrimidine-DNA glycosylase (Escherichia coli (strain K12), UniProt P05523).
T4 sequence (P05523 whole entry): T3 sequence (whole entry)
The experiment is described as follows: Inhibition of Escherichia coli FPG using 8-oxo-Gua substrate incubated for 10 mins by TAMRA fluorescence-based assay.

Experiment [15] addresses T1, Endonuclease III-like protein 1 (Homo sapiens). The experiment is described as follows: Inhibition of NTH1 (unknown origin) assessed as effect on DNA lesions per 10^6 DNA bases using 5-hydroxycytosine substrate incubated for 1 hr by GC-MS/MS assay.
Experiment [16] shares this target. The experiment is described as follows: Inhibition of NTH1 (unknown origin) assessed as effect on DNA lesions per 10^6 DNA bases using thymine glycol substrate incubated for 1 hr by GC-MS/MS assay.
Experiment [17] concerns the target T5, Endonuclease III-like protein 1 (Homo sapiens, UniProt P78549).
T5 sequence (P78549 whole entry): T1 sequence (whole entry)
In words: Inhibition of NTH1 (unknown origin) incubated for 40 mins by TAMRA fluorescence-based assay.

In experiment [18] the target is T6, N-glycosylase/DNA lyase (Homo sapiens, UniProt O15527). In words: Inhibition of human OGG1 assessed as reduction in free Inhibition of human OGG1 assessed as reduction in free FapyGua release using gamma-irradiated calf thymus DNA substrate incubated for 1 hr by GC-MS/MS assay.
The target in experiment [19] is T6, N-glycosylase/DNA lyase. The experiment is described as follows: Inhibition of human OGG1 assessed as reduction in free 8-oxo-Gua release using gamma-irradiated calf thymus DNA substrate incubated for 1 hr by GC-MS/MS assay.
The target of experiment [20] is T6, N-glycosylase/DNA lyase. The experiment is described as follows: Inhibition of human OGG1 assessed as reduction in AP lyase activity using AP-containing substrate.
Experiment [21] has as its target T6, N-glycosylase/DNA lyase. In words: Inhibition of human OGG1 binding to 8-oxo-Gua substrate using compound pre-incubated with enzyme for 5 to 10 mins before substrate addition and further incubated for 5 mins by native gel electrophoresis based by gel-shift assay.
Experiment [22] deals with T6, N-glycosylase/DNA lyase. In words: Inhibition of human OGG1 assessed as protection against NaOH-mediated strand cleavage using AP-containing substrate. Further details: scale not given: the % may be the effect or the level left.
The species named for experiment [23] is Homo sapiens. In words: Selectivity index, ratio of IC50 for inhibition of NEIL1 (unknown origin) using Sp/Gh substrate incubated for 40 mins by TAMRA fluorescence-based assay to IC50 for inhibition of human OGG1 incubated for 30 mins using 8-oxo-Gua-containing substrate by TAMRA fluorescence-based assay.
A short description of experiment [24]: Selectivity index, ratio of IC50 for inhibition of Escherichia coli FPG using 8-oxo-Gua substrate incubated for 10 mins by TAMRA fluorescence-based assay to IC50 for inhibition of human OGG1 incubated for 30 mins using 8-oxo-Gua-containing substrate by TAMRA fluorescence-based assay.
Experiment [25] deals with T6, N-glycosylase/DNA lyase. The experiment is described as follows: Inhibition of human OGG1 catalytic activity assessed as reduction trapping of substrates at 10 uM using AP site containing substrate in presence of sodium cyno-borohydride by gel electrophoresis method.
Experiment [26] has as its target T6, N-glycosylase/DNA lyase. In words: Inhibition of human OGG1 catalytic activity assessed as reduction trapping of substrates at 10 uM using 8-oxo-Gua substrate in presence of sodium cyno-borohydride by gel electrophoresis method.
The species entered for experiment [27] is Homo sapiens. The experiment is described as follows: Selectivity index, ratio of IC50 for inhibition of NTH1 (unknown origin) incubated for 40 mins by TAMRA fluorescence-based assay to IC50 for inhibition of human OGG1 incubated for 30 mins using 8-oxo-Gua-containing substrate by TAMRA fluorescence-based assay.

SMILES strings stand for the structures. Calls of active or inactive are those of the source. No cut-off for these calls is given here. A value given as a limit tells only on which side of the number the result lay.

T2 sequence (Q96FI4 whole entry): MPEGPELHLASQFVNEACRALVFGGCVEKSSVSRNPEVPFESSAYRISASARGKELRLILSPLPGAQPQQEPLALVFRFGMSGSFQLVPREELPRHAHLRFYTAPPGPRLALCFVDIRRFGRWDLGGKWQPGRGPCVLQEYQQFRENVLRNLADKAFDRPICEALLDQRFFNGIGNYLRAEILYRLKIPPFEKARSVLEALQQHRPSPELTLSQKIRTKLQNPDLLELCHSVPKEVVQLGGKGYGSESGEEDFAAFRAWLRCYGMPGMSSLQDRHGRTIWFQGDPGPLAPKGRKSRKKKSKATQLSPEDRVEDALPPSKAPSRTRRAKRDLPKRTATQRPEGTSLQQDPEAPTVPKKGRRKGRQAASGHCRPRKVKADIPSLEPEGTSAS
T6 sequence (O15527 whole entry): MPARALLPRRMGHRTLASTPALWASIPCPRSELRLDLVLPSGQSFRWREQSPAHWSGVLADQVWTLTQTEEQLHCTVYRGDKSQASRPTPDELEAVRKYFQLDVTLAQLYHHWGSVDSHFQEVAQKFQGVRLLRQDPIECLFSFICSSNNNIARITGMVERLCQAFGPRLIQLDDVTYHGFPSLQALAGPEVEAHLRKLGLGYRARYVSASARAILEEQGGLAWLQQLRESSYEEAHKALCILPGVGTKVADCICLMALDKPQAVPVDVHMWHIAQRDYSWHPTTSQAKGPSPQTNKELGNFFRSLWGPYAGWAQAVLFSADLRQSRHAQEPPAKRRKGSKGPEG

As to `CCCN1CCC(=NNC(=O)c2ccc(Cl)cc2Cl)CC1`, the Activity in experiment [1] is 96.1%; in experiment [3], 91.2%. For the same molecule, in [2], the result was inactive.

On to `CC(Oc1cccc(Cl)c1)C(=O)NN` (configuration not stated), for which the Activity was determined as 90.8% in [4], 100% in [1] and 95.3% in experiment [3]. Further, the result in [2] was inactive.

With `C=CCC/C(C)=N\NC(=O)c1cccc(Br)c1`, the Activity in experiment [4] came out at 78.8%; in [1], 90.6%; in experiment [3], 93.5%. Besides, the result in [2] was inactive.

Usually IC50 stands for the concentration at which inhibition is half-maximal. With `O=C(NN=C1CCCCC1)c1ccc(Br)cc1`, the Activity in [4] amounted to 91.7%; in [1], 84.5%; in experiment [3], 97.6%. Besides, the IC50 in [5], in experiment [14] and in experiment [17] was more than 50 µM throughout. The inhibition entry in experiment [6], in experiment [7], in experiment [8], in experiment [9], in experiment [10] and in [11] was “inactive” throughout. Besides, the inhibition result in [12], in experiment [13], in experiment [15] and in [16] was “inactive” each time. The result in experiment [2] was inactive.

With `Cc1cc(C(=O)NNCc2ccccc2)no1`, the inhibition result in [18], in experiment [19] and in experiment [20] was “inactive” each time. Moreover, the Activity in experiment [1] is 105%; in [3] it was 93.3%.

For `NNC(=O)COc1cccc2ccccc12`, the Activity stood at 88.5% in [4], 53.6% in experiment [1] and 78.7% in experiment [3]. The result in experiment [2] was inactive.

Consider `O=C(N/N=C/c1ccc(F)cc1)c1sc2ccccc2c1Cl`, for which the Activity in experiment [4] was found to be 81.7%; in experiment [1] it was 89.2%; in experiment [3], 86.7%. Further, the IC50 in experiment [5], in experiment [14] and in experiment [17] was more than 50 µM in each case. Further, the inhibition entry in [6], in experiment [7], in experiment [8], in [9], in experiment [10] and in experiment [11] was “inactive” each time. In addition, the inhibition entry in experiment [12], in experiment [13], in experiment [15] and in experiment [16] was “inactive” throughout. Moreover, the outcome in [2] was inactive.

Take `CCCC/C(C)=N\NC(=O)c1cccc(Br)c1`: the values for the Activity in [4], in [1] and in experiment [3] were 90.9%, 92.6% and 101%, respectively. Besides, the outcome in experiment [2] was inactive.

For `C/C(=N\NC(=O)c1cc2ccccc2cc1O)c1ccc2c(c1)OCO2`, the Activity in [1] was 73%; in experiment [3] it was 52%. Besides, in experiment [2], the outcome was inactive.

Take `O=C(O)C1=CC(=C(c2ccc(O)c(C(=O)O)c2)c2ccc(O)c(C(=O)O)c2)C=CC1=O`: in experiment [21], the inhibition result was “Active”.

`COc1cc(C)c(S(=O)(=O)n2cc(C)nc2-c2ccccc2)cc1C`: the Activity in [1] amounted to 109%; in experiment [3] it was 100%. The outcome in experiment [2] was inactive.

For `NNc1nncc2ccccc12`, in experiment [22], the Activity stood at 64%.

In the case of `O=C(CCNNC(=O)c1ccncc1)NCc1ccccc1`, the Activity amounted to 108% in experiment [1] and 96.4% in [3].

In the case of `O=C(NN=C1CCCCC1)c1cc2ccccc2cc1O`, the Activity in experiment [4] was found to be 77%; in [22], 10%; in experiment [1], 83%; in [3] it was 87.4%. Also, the Ratio IC50 in experiment [23], in [24] and in experiment [27] was more than 200 in each case. The IC50 in [5], in experiment [14] and in experiment [17] was more than 50 µM throughout. For the same molecule, the inhibition result in experiment [6], in [7], in experiment [8], in [9], in experiment [10] and in experiment [11] was “inactive” each time. Also, the inhibition entry in experiment [12], in experiment [13], in [15], in experiment [16] and in experiment [21] was “inactive” throughout. The inhibition result in [25], in experiment [26], in [18], in [19] and in [20] was “Active” in each case. In addition, the result in experiment [2] was inactive.

Regarding `CC1CCCC/C1=N/NC(=O)c1sc2ccccc2c1Cl` (configuration not stated), the Activity in experiment [4] turned out to be 87.3%; in experiment [1], 94.8%; in experiment [3] it was 82.3%. Also, the half-maximal inhibitory concentration (IC50) in [5], in experiment [14] and in experiment [17] was more than 50 µM in each case. Further, the inhibition entry in experiment [6], in [7], in experiment [8], in experiment [9], in [10] and in experiment [11] was “inactive” throughout. In addition, the inhibition result in experiment [12], in [13], in experiment [15] and in [16] was “inactive” each time. Also, the outcome in experiment [2] was inactive.

For `Cc1cc(OCC(=O)NN)cc(C)c1Cl`, the values for the Activity in experiment [4], in [1] and in experiment [3] were 95%, 75.1% and 83.7%, respectively. In addition, the outcome in experiment [2] was inactive.

With `CC[n+]1c(-c2ccccc2)c2cc(N)ccc2c2ccc(N)cc21`, the result in experiment [2] was Active.
